This note sets out measurements from PubChem BioAssay AID330 (DTP/NCI, 2004).

This assay relates to P388 leukemia ip, CD2F1 mice, survival T/C. Put plainly: NCI In Vivo Anticancer Drug Screen. Data for tumor model P388 Leukemia (intraperitoneal) in CD2F1 (CDF1) mice. To be noted: endpoint: median survival time, higher = longer survival. An outline of the steps: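 Mice carrying the transplanted tumor received test compound or vehicle. Survival was recorded in each group, and the value is the treated-group measurement divided by that of the vehicle-treated control group.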

Where [1] appears, read: dose: 50.0 mg/kg/injection, schedule: Q01DX005 (ip), vehicle: saline with Tween-80.
[2] abbreviates: dose: 100.0 mg/kg/injection, schedule: Q01DX005 (ip), vehicle: saline with Tween-80.
[3] abbreviates: dose: 50.0 mg/kg/injection, schedule: Q01DX009 (ip), vehicle: saline.
[4] abbreviates: dose: 100.0 mg/kg/injection, schedule: Q01DX009 (ip), vehicle: saline.
The mark [5] stands for this setting: dose: 200.0 mg/kg/injection, schedule: Q01DX009 (ip), vehicle: saline.
[6] abbreviates: dose: 50.0 mg/kg/injection, schedule: Q01DX005 (ip), vehicle: Klucel (hydroxypropylcellulose) (HPC).
Where [7] appears, read: dose: 100.0 mg/kg/injection, schedule: Q01DX005 (ip), vehicle: Klucel (hydroxypropylcellulose) (HPC).
Where [8] appears, read: dose: 200.0 mg/kg/injection, schedule: Q01DX005 (ip), vehicle: Klucel (hydroxypropylcellulose) (HPC).
Setting [9] is: dose: 0.75 mg/kg/injection, schedule: Q01DX009 (ip), vehicle: saline.

Where “and” joins values, the source holds several entries; their conditions need not be identical. Equal values may be shown once. Toxic doses and inconclusive results are not listed.

In the case of `CN=C(NC)c1ccc(NC(=O)c2ccc(C(=O)Nc3ccc(C(=NC)NC)cc3)c(Cl)c2)cc1`, the T/C is 218 % of control (dose: 18.0 mg/kg/injection, schedule: Q01DX010 (ip), vehicle: saline); 254 % of control (dose: 27.0 mg/kg/injection, schedule: Q01DX010 (ip), vehicle: saline); 209 % of control (dose: 40.0 mg/kg/injection, schedule: Q01DX010 (ip), vehicle: saline); 154 % of control (dose: 60.0 mg/kg/injection, schedule: Q01DX010 (ip), vehicle: saline).

With `CN(C)Cc1cc(CN(C)C)c(O)c(CN(C)C)c1`, the T/C was 88 % of control (dose: 50.0 mg/kg/injection, schedule: Q01DX009 (ip), vehicle: saline with Tween-80) and 93 % of control (dose: 100.0 mg/kg/injection, schedule: Q01DX009 (ip), vehicle: saline with Tween-80).

In the case of `COc1cc(C)ccc1C1=NC(C)(c2ccc(C)cc2OC)NC1=S` (stereo unspecified), the T/C is, setting by setting: (dose: 37.5 mg/kg/injection, schedule: Q01DX009 (ip), vehicle: Klucel (hydroxypropylcellulose) (HPC)) 124 % of control; (dose: 75.0 mg/kg/injection, schedule: Q01DX009 (ip), vehicle: Klucel (hydroxypropylcellulose) (HPC)) 120 % of control.

Turning to `CC(C)=CCC/C(C)=C/COc1ccc(/C=C2/C(=O)N(O)[C@@H](C)C(=O)N2O)cc1`, the T/C is, setting by setting: (dose: 6.25 mg/kg/injection, schedule: Q01DX009 (ip), vehicle: saline) 123 % of control and 97 % of control; (dose: 12.5 mg/kg/injection, schedule: Q01DX009 (ip), vehicle: saline) 99 % of control; (dose: 25.0 mg/kg/injection, schedule: Q01DX009 (ip), vehicle: saline) 108 % of control.

For `C1CCC2OCN3CCCCC3CC2C1` (stereo unspecified), the T/C reads like this: (dose: 12.5 mg/kg/injection, schedule: Q01DX005 (ip), vehicle: saline) 107 % of control and 98 % of control; (dose: 25.0 mg/kg/injection, schedule: Q01DX005 (ip), vehicle: saline) 99 % of control and 98 % of control; (dose: 50.0 mg/kg/injection, schedule: Q01DX005 (ip), vehicle: saline) 100 % of control and 111 % of control and 113 % of control; (dose: 100.0 mg/kg/injection, schedule: Q01DX005 (ip), vehicle: saline) 114 % of control and 118 % of control and 121 % of control.

Turning to `CC1=CC2(C)OC(=O)N(c3ccccc3)C2N=C1` (stereo unspecified), the T/C is, setting by setting: (dose: 50.0 mg/kg/injection, schedule: Q01DX009 (ip), vehicle: Klucel (hydroxypropylcellulose) (HPC)) 111 % of control; (dose: 100.0 mg/kg/injection, schedule: Q01DX009 (ip), vehicle: Klucel (hydroxypropylcellulose) (HPC)) 109 % of control.

Take `Cc1ccc2occ(/C=N/NC(N)=S)c(=O)c2c1`: the T/C was 90 % of control under setting [1] and 97 % of control under setting [2].

`CC(=O)CCS(=O)Cc1ccccc1` (stereo unspecified): the T/C reads like this: (dose: 60.0 mg/kg/injection, schedule: Q01DX005 (ip), vehicle: saline with Tween-80) 103 % of control; (dose: 120.0 mg/kg/injection, schedule: Q01DX005 (ip), vehicle: saline with Tween-80) 98 % of control; (dose: 240.0 mg/kg/injection, schedule: Q01DX005 (ip), vehicle: saline with Tween-80) 111 % of control.

Turning to `CCn1c(O)c(N=NC(=S)c2ccc3ccccc3n2)c2ccccc21`, the T/C by setting is: under setting [3], 104 % of control; under setting [4], 96 % of control; under setting [5], 86 % of control.

As for `O=S1(=O)CCN(Cc2ccccn2)CC1`, the T/C runs as follows: under setting [3], 94 % of control; under setting [4], 94 % of control; under setting [5], 91 % of control.

Turning to `CC(C)(C)[Si](C)(C)OCc1ccccc1N1C(=O)C(N=[N+]=[N-])C1/C=C/c1ccccc1` (stereo unspecified), the T/C was 101 % of control (dose: 6.25 mg/kg/injection, schedule: Q01DX001 (ip), vehicle: Klucel (hydroxypropylcellulose) (HPC)); 103 % of control (dose: 12.5 mg/kg/injection, schedule: Q01DX001 (ip), vehicle: Klucel (hydroxypropylcellulose) (HPC)); 94 % of control (dose: 25.0 mg/kg/injection, schedule: Q01DX001 (ip), vehicle: Klucel (hydroxypropylcellulose) (HPC)); 101 % of control (dose: 50.0 mg/kg/injection, schedule: Q01DX001 (ip), vehicle: Klucel (hydroxypropylcellulose) (HPC)); 98 % of control (dose: 100.0 mg/kg/injection, schedule: Q01DX001 (ip), vehicle: Klucel (hydroxypropylcellulose) (HPC)); 89 % of control (dose: 400.0 mg/kg/injection, schedule: Q01DX001 (ip), vehicle: saline with Tween-80).

Consider `CC1=COC2CCCCC2O1` (stereo unspecified) (tested in a mixture with another compound), for which the T/C was 111 % of control (dose: 25.0 mg/kg/injection, schedule: Q01DX009 (ip), vehicle: acetone) and 105 % of control (dose: 50.0 mg/kg/injection, schedule: Q01DX009 (ip), vehicle: acetone).

As to `O=c1[nH]c(-c2ccccc2)nc2nc3ccc([N+](=O)[O-])cc3[n+]([O-])c12`, the T/C runs as follows: under setting [3], 93 % of control; under setting [4], 92 % of control; under setting [5], 97 % of control.

Take `O=C(C/[N+]([O-])=C/c1ccccc1)OCc1ccccc1`: the T/C (dose: 12.5 mg/kg/injection, schedule: Q01DX009 (ip), vehicle: other) was 112 % of control; the T/C (dose: 25.0 mg/kg/injection, schedule: Q01DX009 (ip), vehicle: other) is 112 % of control; the T/C (dose: 50.0 mg/kg/injection, schedule: Q01DX009 (ip), vehicle: other) is 95 % of control; the T/C (dose: 100.0 mg/kg/injection, schedule: Q01DX009 (ip), vehicle: other) is 88 % of control; the T/C (dose: 200.0 mg/kg/injection, schedule: Q01DX009 (ip), vehicle: other) was 104 % of control.

As for `Brc1ccc(-c2ccc3nnnn3n2)s1`, the T/C is 91 % of control under setting [6], 95 % of control under setting [7] and 87 % of control under setting [8].

Regarding `CN(C)c1c2c(=O)n(C)c(=O)n(C)c2nc2cccc[n+]12`, the T/C is, setting by setting: under setting [6], 95 % of control; under setting [7], 106 % of control; under setting [8], 104 % of control.

Take `C=CC12COC(=O)C(=C)C1C1OC(=O)C(=C)C1CC2O` (stereo unspecified): the T/C was 120 % of control under setting [9]; 123 % of control (dose: 1.5 mg/kg/injection, schedule: Q01DX009 (ip), vehicle: saline); 118 % of control (dose: 3.0 mg/kg/injection, schedule: Q01DX009 (ip), vehicle: saline); 120 % of control (dose: 6.0 mg/kg/injection, schedule: Q01DX009 (ip), vehicle: saline).

Consider `Brc1cc2c(cc1CC1NCCc3cc4c(cc31)OCO4)OCO2` (stereo unspecified), for which the T/C runs as follows: (dose: 50.0 mg/kg/injection, schedule: Q01DX001 (ip), vehicle: saline + alcohol) 97 % of control; (dose: 100.0 mg/kg/injection, schedule: Q01DX001 (ip), vehicle: saline + alcohol) 100 % of control; (dose: 200.0 mg/kg/injection, schedule: Q01DX001 (ip), vehicle: saline + alcohol) 103 % of control.

With `CCOC(=O)c1cc(Br)c(=O)n(C)c1`, the T/C under setting [1] is 96 % of control; the T/C under setting [2] is 95 % of control; the T/C (dose: 200.0 mg/kg/injection, schedule: Q01DX005 (ip), vehicle: saline with Tween-80) was 89 % of control.

In the case of `COc1ccc(Oc2ccc(C(=O)C(CN(C)C)CN(C)C)cc2)cc1`, the T/C is, setting by setting: (dose: 3.75 mg/kg/injection, schedule: Q01DX005 (ip), vehicle: saline) 121 % of control; (dose: 7.5 mg/kg/injection, schedule: Q01DX005 (ip), vehicle: saline) 124 % of control; (dose: 30.0 mg/kg/injection, schedule: Q01DX005 (ip), vehicle: saline) 88 % of control.

For `CC(=O)Nc1ccc(-c2ccc(NC(C)=O)cc2)cc1`, the T/C is 105 % of control under setting [3], 92 % of control under setting [4] and 92 % of control under setting [5].

Consider `COC(=O)C1CCC[P+]1(C)C` (stereo unspecified), for which the T/C (dose: 100.0 mg/kg/injection, schedule: Q01DX001 (ip), vehicle: saline) was 106 % of control and the T/C (dose: 400.0 mg/kg/injection, schedule: Q01DX001 (ip), vehicle: saline) was 101 % of control.

Turning to `[CH3][Sn]([CH3])([CH3])[O][N+](=O)[O-]`, the T/C by setting is: (dose: 0.37 mg/kg/injection, schedule: Q01DX009 (ip), vehicle: saline) 111 % of control; under setting [9], 91 % of control.

With `C=C=CN1C(C)=CC(=C2C(=O)c3ccccc3C2=O)C=C1C`, the T/C reads like this: (dose: 25.0 mg/kg/injection, schedule: Q01DX005 (ip), vehicle: Klucel (hydroxypropylcellulose) (HPC)) 99 % of control and 97 % of control; under setting [6], 104 % of control and 92 % of control and 96 % of control; (dose: 60.0 mg/kg/injection, schedule: Q01DX005 (ip), vehicle: Klucel (hydroxypropylcellulose) (HPC)) 87 % of control; under setting [7], 117 % of control and 96 % of control and 97 % of control; (dose: 120.0 mg/kg/injection, schedule: Q01DX005 (ip), vehicle: Klucel (hydroxypropylcellulose) (HPC)) 97 % of control; under setting [8], 106 % of control and 93 % of control.
